Test results published in PubChem BioAssay AID248 (DTP/NCI, 2004).
“And” between values parts separate entries of the source, which are not always exact repeats. Equal values may be shown once. Inconclusive results and toxic doses are left out. Cut-off read from the data, not from the text of the source: active = T/C of 150% or more; inactive = T/C below 125%.

Tested on: L1210 leukemia ip in BDF1 mice, survival T/C
Experiment: NCI In Vivo Anticancer Drug Screen. Data for tumor model L1210 Leukemia (intraperitoneal) in B6D2F1 (BDF1) mice
Details: endpoint: mean survival time, higher = longer survival
Procedure, shortened: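 Tumor cells were implanted, animals were treated, and survival was followed. The result divides the treated measurement by the vehicle-control measurement.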

[1] = dose: 50.0 mg/kg/injection, schedule: Q04DX003 (ip), vehicle: Klucel (hydroxypropylcellulose) (HPC)
[2] = dose: 100.0 mg/kg/injection, schedule: Q01DX001 (ip), vehicle: Klucel (hydroxypropylcellulose) (HPC)
[3] = dose: 100.0 mg/kg/injection, schedule: Q04DX003 (ip), vehicle: Klucel (hydroxypropylcellulose) (HPC)
[4] = dose: 200.0 mg/kg/injection, schedule: Q01DX001 (ip), vehicle: Klucel (hydroxypropylcellulose) (HPC)
[5] = dose: 200.0 mg/kg/injection, schedule: Q04DX003 (ip), vehicle: Klucel (hydroxypropylcellulose) (HPC)
[6] = dose: 50.0 mg/kg/injection, schedule: Q01DX001 (ip), vehicle: saline
[7] = dose: 100.0 mg/kg/injection, schedule: Q01DX001 (ip), vehicle: saline
[8] = dose: 200.0 mg/kg/injection, schedule: Q01DX001 (ip), vehicle: saline
[9] = dose: 400.0 mg/kg/injection, schedule: Q04DX003 (ip), vehicle: Klucel (hydroxypropylcellulose) (HPC)
[10] = dose: 100.0 mg/kg/injection, schedule: Q01DX009 (ip), vehicle: saline with Tween-80
[11] = dose: 100.0 mg/kg/injection, schedule: Q04DX003 (ip), vehicle: saline with Tween-80
[12] = dose: 200.0 mg/kg/injection, schedule: Q04DX003 (ip), vehicle: saline with Tween-80
[13] = dose: 400.0 mg/kg/injection, schedule: Q04DX003 (ip), vehicle: saline with Tween-80
[14] = dose: 400.0 mg/kg/injection, schedule: Q01DX001 (ip), vehicle: saline
[15] = dose: 100.0 mg/kg/injection, schedule: Q01DX001 (ip), vehicle: carboxymethylcellulose (CMC)
[16] = dose: 200.0 mg/kg/injection, schedule: Q01DX001 (ip), vehicle: carboxymethylcellulose (CMC)
[17] = dose: 100.0 mg/kg/injection, schedule: Q01DX009 (ip), vehicle: Klucel (hydroxypropylcellulose) (HPC)
[18] = dose: 200.0 mg/kg/injection, schedule: Q01DX009 (ip), vehicle: Klucel (hydroxypropylcellulose) (HPC)
[19] = dose: 400.0 mg/kg/injection, schedule: Q01DX009 (ip), vehicle: Klucel (hydroxypropylcellulose) (HPC)
[20] = dose: 100.0 mg/kg/injection, schedule: Q04DX003 (ip), vehicle: saline

Measured: T/C

COc1ccccc1OCCOCCN(C)C1CCCCC1
inactive: dose: 12.5 mg/kg/injection, schedule: Q01DX009 (ip), vehicle: Klucel (hydroxypropylcellulose) (HPC) 93 % of control | dose: 25.0 mg/kg/injection, schedule: Q01DX009 (ip), vehicle: Klucel (hydroxypropylcellulose) (HPC) 94 % of control | dose: 25.0 mg/kg/injection, schedule: Q04DX002 (ip), vehicle: Klucel (hydroxypropylcellulose) (HPC) 102 % of control | dose: 50.0 mg/kg/injection, schedule: Q01DX009 (ip), vehicle: Klucel (hydroxypropylcellulose) (HPC) 96 % of control | dose: 50.0 mg/kg/injection, schedule: Q04DX002 (ip), vehicle: Klucel (hydroxypropylcellulose) (HPC) 105 % of control

BrCc1cccc2cccc(CBr)c12
inactive: [1] 97 % of control | [2] 113 % of control | [3] 101 % of control | [4] 111 % of control | [5] 103 % of control

Oc1ccc(Nc2cc(/C=C/c3ccc(Cl)cc3)nc(/C=C/c3ccc(Cl)cc3)n2)cc1CN1CCCC1
inactive: [6] 89 % of control | [1] 104 % of control | [7] 93 % of control | [3] 95 % of control | [8] 91 % of control | [5] 98 % of control

CS(=O)(=O)OCCN(CCOS(C)(=O)=O)c1ccc(C=Nc2ccc(-c3csc(-c4ccc(Br)cc4)n3)cc2)c(Cl)c1
inactive: [1] 107 % of control | [3] 112 % of control and 115 % of control | [5] 114 % of control and 118 % of control | [9] 123 % of control

O=C(CCl)Oc1cccc([N+](=O)[O-])c1
inactive: dose: 25.0 mg/kg/injection, schedule: Q01DX009 (ip), vehicle: saline with Tween-80 92 % of control | dose: 50.0 mg/kg/injection, schedule: Q01DX009 (ip), vehicle: saline with Tween-80 112 % of control | [10] 107 % of control | [11] 91 % of control | [12] 96 % of control | [13] 94 % of control

CCc1ccc(N)cc1
inactive: dose: 10.0 mg/kg/injection, schedule: Q01DX001 (ip), vehicle: saline 102 % of control | dose: 20.0 mg/kg/injection, schedule: Q01DX001 (ip), vehicle: saline 102 % of control | dose: 40.0 mg/kg/injection, schedule: Q01DX001 (ip), vehicle: saline 111 % of control

NC(=O)n1cnc(N)n1
inactive: [6] 98 % of control | [7] 98 % of control | [8] 104 % of control | [14] 107 % of control

COC(=O)C1(O)c2ccccc2-c2ccccc21
inactive: [15] 103 % of control | [16] 111 % of control | dose: 400.0 mg/kg/injection, schedule: Q01DX001 (ip), vehicle: carboxymethylcellulose (CMC) 97 % of control

COC(=O)c1nc(N)n[nH]1
inactive: dose: 100.0 mg/kg/injection, schedule: Q01DX001 (ip), vehicle: other 110 % of control | [10] 106 % of control | dose: 100.0 mg/kg/injection, schedule: Q04DX003 (ip), vehicle: other 102 % of control | dose: 200.0 mg/kg/injection, schedule: Q01DX001 (ip), vehicle: other 95 % of control | dose: 200.0 mg/kg/injection, schedule: Q01DX009 (ip), vehicle: saline with Tween-80 94 % of control | dose: 200.0 mg/kg/injection, schedule: Q04DX003 (ip), vehicle: other 105 % of control | dose: 400.0 mg/kg/injection, schedule: Q01DX001 (ip), vehicle: other 97 % of control | dose: 400.0 mg/kg/injection, schedule: Q01DX009 (ip), vehicle: saline with Tween-80 95 % of control | dose: 400.0 mg/kg/injection, schedule: Q04DX003 (ip), vehicle: other 102 % of control

CC(C)(C)C(=O)CC(=O)C(C)(C)C.CC(C)(C)C(=O)CC(=O)C(C)(C)C.CC(C)(C)C(=O)CC(=O)C(C)(C)C.CC(C)(C)C(=O)CC(=O)C(C)(C)C.[Zr]
inactive: [17] 96 % of control | [3] 94 % of control | [18] 97 % of control | [5] 89 % of control | [19] 96 % of control | [9] 101 % of control

COc1ccc2c3c1OC1C(OS(=O)(=O)c4ccc(C)cc4)C=CC4C(C2)N(C)CCC341 (stereo not given)
inactive: dose: 75.0 mg/kg/injection, schedule: Q01DX001 (ip), vehicle: carboxymethylcellulose (CMC) 100 % of control | dose: 75.0 mg/kg/injection, schedule: Q01DX001 (ip), vehicle: saline 101 % of control | dose: 150.0 mg/kg/injection, schedule: Q01DX001 (ip), vehicle: carboxymethylcellulose (CMC) 97 % of control | dose: 150.0 mg/kg/injection, schedule: Q01DX001 (ip), vehicle: saline 103 % of control | dose: 300.0 mg/kg/injection, schedule: Q01DX001 (ip), vehicle: carboxymethylcellulose (CMC) 95 % of control | dose: 300.0 mg/kg/injection, schedule: Q01DX001 (ip), vehicle: saline 104 % of control

CC[C@H]1CN2CCc3cc(OC)c(OC)cc3[C@@H]2C[C@@H]1C[C@@H]1c2cc(OC)c(OC)cc2CCN1N=O
inactive: [20] 100 % of control

CC1(C)N=C1c1ccccc1
inactive: dose: 100.0 mg/kg/injection, schedule: Q04DX002 (ip), vehicle: saline 98 % of control | dose: 200.0 mg/kg/injection, schedule: Q04DX002 (ip), vehicle: saline 117 % of control

CC1CCC2(O)C3(C)CC(=O)OC2(C1O)C1(O)C(C)C(O)(C(C)C)C(O)C31O (stereo not given)
inactive: dose: 5.0 mg/kg/injection, schedule: Q01DX001 (ip), vehicle: saline 101 % of control

CC(=O)Nc1ccc(Br)cc1
inactive: dose: 50.0 mg/kg/injection, schedule: Q01DX001 (ip), vehicle: carboxymethylcellulose (CMC) 92 % of control | [15] 93 % of control | [17] 103 % of control | [3] 98 % of control | [16] 93 % of control | [18] 113 % of control | [5] 104 % of control | [9] 106 % of control

CN(C)CCNCC(=O)CC(O)(C(F)(F)F)C(F)(F)F
inactive: [2] 96 % of control | [3] 108 % of control | [4] 109 % of control | [5] 97 % of control | dose: 400.0 mg/kg/injection, schedule: Q01DX001 (ip), vehicle: Klucel (hydroxypropylcellulose) (HPC) 104 % of control | [9] 113 % of control

CN=C(N)N(C)NCc1ccccc1
inactive: dose: 25.0 mg/kg/injection, schedule: Q04DX003 (ip), vehicle: saline 100 % of control | dose: 50.0 mg/kg/injection, schedule: Q04DX003 (ip), vehicle: saline 109 % of control | [7] 97 % of control | [20] 105 % of control

O=C1Nc2ccccc2C2Cc3c([nH]c4ccccc34)CC12 (stereo not given)
inactive: [6] 115 % of control | [7] 104 % of control | [8] 104 % of control | [14] 89 % of control

Nc1nnc(SCc2ccccc2)s1
inactive: [17] 92 % of control | [18] 105 % of control | [19] 97 % of control

CCc1ncc(C(C)(O)c2ccc(Cl)cc2)n1Cc1ccccc1 (stereo not given)
inactive: [3] 94 % of control | [5] 92 % of control | [9] 89 % of control

COc1ccc(C(=O)Nc2ccc(Br)cc2)cc1
inactive: [11] 97 % of control | [12] 95 % of control | [13] 105 % of control

O=C(O)c1cc2ccccc2c(N=Nc2ccc(S(=O)(=O)N(CCCl)CCCl)cc2)c1O
inactive: [17] 113 % of control | [18] 103 % of control | [19] 111 % of control
